# In patent US20220403001A1, “PDE5 DERIVED REGULATORY CONSTRUCTS AND METHODS OF USE IN IMMUNOTHERAPY” (Obsidian Therapeutics, Inc., priority 2018, published 2022):
# How the values were obtained:
# hPDE5 mutants [1] = assay: GFP expression (MFI) by FACS in HEK293 cells expressing hPDE5 constructs
# Procedure: The mutant library was ligated in frame with an AcGFP reporter at C-terminus and cloned into pLVX-IRES—Puro vectors. […] DNA was extracted from the cell pool, cloned into vectors, and transformed into E. coli. Individual clones were sequenced and cloned in frame with a linker [sequence] […] HEK293 cells were transduced with individual clones and selected with puromycin.
# The GFP expression in cells expressing hPDE5 constructs was measured by FACS.
# The stability of hPDE5 mutants was measured using FACS and mean fluorescence intensity (MFI) of GFP was calculated.
# hPDE5 mutants [2] = assay: Immunoblot (AcGFP antibody) of hPDE5-AcGFP constructs in HEK293 cells; type: cell-based, human; conditions: compared with wildtype OT-001075
# From the text: Puro and used as a control.
# Cell lysates obtained from hPDE5N construct expressing cells were immunoblotted using the AcGFP antibody (Clonetech, Mountain View, Calif.). Samples were also immunoblotted with the GAPDH antibody to ensure uniform protein loading.
# hPDE5 mutants [3] = assay: GFP MFI by FACS in HCT116 cells transduced with hPDE5 constructs; type: cell-based, human; conditions: for MFI / Stabilization ratio / Vardenafil dose response (MFI of GFP): HCT116; for Sildenafil dose response (MFI) / Tadalafil dose response (MFI): HCT 116
# hPDE5 mutants [4] = target: hPDE5 mutants (Homo sapiens, UniProt O76074); assay: as above; type: cell-based; conditions: HCT-116
# hPDE5 mutants [5] = assay: Western blot of AcGFP/GFP protein levels in HCT 116 cells expressing hPDE5 mutants; type: cell-based, human; conditions: 10 μM Vardenafil, 24 hours, HCT 116
# Procedure: Protein expression analysis of the combination mutants was performed in parallel via western blot. […] GAPDH levels were also analyzed to ensure even protein loading.
# [6] = Sildenafil 0.0005 μM, 48 h, HEK293
# [7] = Sildenafil 3.33 μM, 48 h, HEK293
# [8] = Sildenafil 10 μM, 48 h, HEK293 (dose titration)
# [9] = Sildenafil 10 μM, 48 h, HEK293 (time course)
# [10] = Vardenafil 0.0005 μM, 48 h, HEK293
# [11] = Vardenafil 3.33 μM, 48 h, HEK293
# [12] = Vardenafil (10 μM), 48 h, Table 25, cell line not given in table
substance,measurement,setting,value
OT-001076: hPDE5-F736A AcGFP construct,MFI,hPDE5 mutants [1]; [6],6848
same,Stabilization ratio,hPDE5 mutants [1]; [6],0.97
same,MFI,hPDE5 mutants [1]; [7],49220
same,Stabilization ratio,hPDE5 mutants [1]; [7],7.00
same,MFI,"hPDE5 mutants [1]; Sildenafil 10 μM, 2 h, HEK293",12088
same,Stabilization ratio,"hPDE5 mutants [1]; Sildenafil 10 μM, 2 h, HEK293",1.54
same,MFI,"hPDE5 mutants [1]; Sildenafil 10 μM, 4 h, HEK293",14046
same,Stabilization ratio,"hPDE5 mutants [1]; Sildenafil 10 μM, 4 h, HEK293",1.77
same,MFI,"hPDE5 mutants [1]; Sildenafil 10 μM, 6 h, HEK293",16710
same,Stabilization ratio,"hPDE5 mutants [1]; Sildenafil 10 μM, 6 h, HEK293",2.11
same,MFI,"hPDE5 mutants [1]; Sildenafil 10 μM, 16 h, HEK293",39029
same,Stabilization ratio,"hPDE5 mutants [1]; Sildenafil 10 μM, 16 h, HEK293",4.93
same,MFI,"hPDE5 mutants [1]; Sildenafil 10 μM, 24 h, HEK293",51534
same,Stabilization ratio,"hPDE5 mutants [1]; Sildenafil 10 μM, 24 h, HEK293",6.51
same,MFI,hPDE5 mutants [1]; [8],67084
same,Stabilization ratio,hPDE5 mutants [1]; [8],9.53
same,MFI,hPDE5 mutants [1]; [9],70811
same,Stabilization ratio,hPDE5 mutants [1]; [9],8.94
same,MFI,hPDE5 mutants [1]; [10],11770
same,Stabilization ratio,hPDE5 mutants [1]; [10],1.04
same,MFI,hPDE5 mutants [1]; [11],172990
same,Stabilization ratio,hPDE5 mutants [1]; [11],15.33
same,MFI,"hPDE5 mutants [1]; Vardenafil 10 μM, 48 h, HEK293",188068
same,Stabilization ratio,"hPDE5 mutants [1]; Vardenafil 10 μM, 48 h, HEK293",16.66
same,Stabilization ratio,"hPDE5 mutants [1]; Vardenafil (1 μM), 48 h, Table 25, cell line not given in table",11.52
same,MFI,"hPDE5 mutants [1]; Vardenafil (1 μM), 48 h, Table 25, cell line not given in table (HEK293, HCT-116, SKOV-3)",110603
same,MFI,hPDE5 mutants [1]; [12],143351
same,Stabilization ratio,hPDE5 mutants [1]; [12],14.93
same,hPDE5-GFP levels with DMSO treatment (immunoblot),hPDE5 mutants [2],lower than in the wildtype hPDE5 construct
"OT-001222: hPDE5 (F736A, D764N) GFP construct",Vardenafil Stabilization ratio,"hPDE5 mutants [3]; 10 μM, 48 h, HCT-116",4.26
same,MFI DMSO,"hPDE5 mutants [3]; GFP, DMSO 48 h, HCT-116",12633
same,MFI,"hPDE5 mutants [3]; Sildenafil 0.04 μM, 24 h",8688
same,Stabilization ratio,"hPDE5 mutants [3]; Sildenafil 0.04 μM, 24 h",0.81
same,MFI,"hPDE5 mutants [3]; Sildenafil 0.5 μM, 4 hours",5322
same,Stabilization ratio,"hPDE5 mutants [3]; Sildenafil 0.5 μM, 4 hours",1.64
same,MFI,"hPDE5 mutants [3]; Sildenafil 0.5 μM, 8 hours",5083
same,Stabilization ratio,"hPDE5 mutants [3]; Sildenafil 0.5 μM, 8 hours",1.57
same,MFI,"hPDE5 mutants [3]; Sildenafil 0.5 μM, 12 hours",5122
same,Stabilization ratio,"hPDE5 mutants [3]; Sildenafil 0.5 μM, 12 hours",1.58
same,MFI,"hPDE5 mutants [3]; Sildenafil 0.5 μM, 16 hours",5600
same,Stabilization ratio,"hPDE5 mutants [3]; Sildenafil 0.5 μM, 16 hours",1.73
same,MFI,"hPDE5 mutants [3]; Sildenafil 0.5 μM, 20 hours",6003
same,Stabilization ratio,"hPDE5 mutants [3]; Sildenafil 0.5 μM, 20 hours",1.85
same,MFI,"hPDE5 mutants [3]; Sildenafil 0.5 μM, 24 hours",6144
same,Stabilization ratio,"hPDE5 mutants [3]; Sildenafil 0.5 μM, 24 hours",1.89
same,MFI,"hPDE5 mutants [3]; Sildenafil 0.5 μM, 48 hours",6682
same,Stabilization ratio,"hPDE5 mutants [3]; Sildenafil 0.5 μM, 48 hours",2.06
same,MFI,"hPDE5 mutants [3]; Sildenafil 0.5 μM, 72 hours",6906
same,Stabilization ratio,"hPDE5 mutants [3]; Sildenafil 0.5 μM, 72 hours",2.13
same,MFI,"hPDE5 mutants [3]; Sildenafil 3.33 μM, 24 h",10384
same,Stabilization ratio,"hPDE5 mutants [3]; Sildenafil 3.33 μM, 24 h",0.97
same,MFI,"hPDE5 mutants [3]; Sildenafil 5 μM, 4 hours",6314
same,Stabilization ratio,"hPDE5 mutants [3]; Sildenafil 5 μM, 4 hours",1.88
same,MFI,"hPDE5 mutants [3]; Sildenafil 5 μM, 8 hours",7021
same,Stabilization ratio,"hPDE5 mutants [3]; Sildenafil 5 μM, 8 hours",2.09
same,MFI,"hPDE5 mutants [3]; Sildenafil 5 μM, 12 hours",9199
same,Stabilization ratio,"hPDE5 mutants [3]; Sildenafil 5 μM, 12 hours",2.73
same,MFI,"hPDE5 mutants [3]; Sildenafil 5 μM, 16 hours",12280
same,Stabilization ratio,"hPDE5 mutants [3]; Sildenafil 5 μM, 16 hours",3.65
same,MFI,"hPDE5 mutants [3]; Sildenafil 5 μM, 20 hours",13280
same,Stabilization ratio,"hPDE5 mutants [3]; Sildenafil 5 μM, 20 hours",3.95
same,MFI,"hPDE5 mutants [3]; Sildenafil 5 μM, 24 hours",16705
same,Stabilization ratio,"hPDE5 mutants [3]; Sildenafil 5 μM, 24 hours",4.97
same,MFI,"hPDE5 mutants [3]; Sildenafil 5 μM, 48 hours",22061
same,Stabilization ratio,"hPDE5 mutants [3]; Sildenafil 5 μM, 48 hours",6.56
same,MFI,"hPDE5 mutants [3]; Sildenafil 5 μM, 72 hours",26995
same,Stabilization ratio,"hPDE5 mutants [3]; Sildenafil 5 μM, 72 hours",8.02
same,MFI,"hPDE5 mutants [3]; Sildenafil 10 μM, 24 h",13263
same,Stabilization ratio,"hPDE5 mutants [3]; Sildenafil 10 μM, 24 h",1.24
same,Sildenafil dose response (MFI),"hPDE5 mutants [3]; Sildenafil 11.11 μM, 48 h",5675
same,MFI,"hPDE5 mutants [3]; Sildenafil 30 μM, 24 h",26837
same,Stabilization ratio,"hPDE5 mutants [3]; Sildenafil 30 μM, 24 h",2.5
same,Sildenafil dose response (MFI),"hPDE5 mutants [3]; Sildenafil 33.33 μM, 48 h",9677
same,Sildenafil dose response (MFI),"hPDE5 mutants [3]; Sildenafil 100.00 μM, 48 h",37494
same,Destabilizing mutation co-efficient ratio,"hPDE5 mutants [3]; Sildenafil dose response experiment (Table 27), vs OT-001216",0.17
same,Vardenafil dose response (MFI of GFP),"hPDE5 mutants [3]; Table 33, 0.01 μM, 48 h",4444
same,Vardenafil dose response (MFI of GFP),"hPDE5 mutants [3]; Table 33, 0.04 μM, 48 h",4934
same,Vardenafil dose response (MFI of GFP),"hPDE5 mutants [3]; Table 33, 3.33 μM, 48 h",10516
same,Vardenafil dose response (MFI of GFP),"hPDE5 mutants [3]; Table 33, 10.00 μM, 48 h",24927
same,MFI,"hPDE5 mutants [3]; Tadalafil 11.11 μM, 24 h",13789
same,Stabilization ratio,"hPDE5 mutants [3]; Tadalafil 11.11 μM, 24 h",2.28
same,Tadalafil dose response (MFI),"hPDE5 mutants [3]; Tadalafil 11.11 μM, 48 h",8299
same,MFI,"hPDE5 mutants [3]; Tadalafil 33.33 μM, 24 h",20464
same,Stabilization ratio,"hPDE5 mutants [3]; Tadalafil 33.33 μM, 24 h",3.39
same,Tadalafil dose response (MFI),"hPDE5 mutants [3]; Tadalafil 33.33 μM, 48 h",15831
same,MFI,"hPDE5 mutants [3]; Tadalafil 100 μM, 24 h",23542
same,Stabilization ratio,"hPDE5 mutants [3]; Tadalafil 100 μM, 24 h",3.9
same,Tadalafil dose response (MFI),"hPDE5 mutants [3]; Tadalafil 100.00 μM, 48 h",31020
same,Destabilizing mutation coefficient,"hPDE5 mutants [3]; Tadalafil dose response experiment (Table 29), vs OT-001216",0.17
same,MFI,"hPDE5 mutants [3]; Vardenafil 0.04 μM, 24 h",6174
same,Stabilization ratio,"hPDE5 mutants [3]; Vardenafil 0.04 μM, 24 h",0.80
same,MFI,"hPDE5 mutants [3]; Vardenafil 3.33 μM, 24 h",29520
same,Stabilization ratio,"hPDE5 mutants [3]; Vardenafil 3.33 μM, 24 h",3.84
same,MFI,"hPDE5 mutants [3]; Vardenafil 10 μM, 24 h",29971
same,Stabilization ratio,"hPDE5 mutants [3]; Vardenafil 10 μM, 24 h",3.90
same,MFI,"hPDE5 mutants [3]; Vardenafil 30 μM, 24 h",46109
same,Stabilization ratio,"hPDE5 mutants [3]; Vardenafil 30 μM, 24 h",5.99
same,Destabilizing mutation coefficient,"hPDE5 mutants [3]; Vardenafil dose response experiment (Table 28), vs OT-001216",0.12
same,Destabilizing mutation coefficient,"hPDE5 mutants [3]; vs wildtype OT-001216, absence of ligand, HCT-116",0.19
same,Sildenafil Stabilization ratio,"hPDE5 mutants [4]; 10 μM, 48 h",1.10
same,Vardenafil Stabilization ratio,"hPDE5 mutants [4]; 10 μM, 48 h",4.26
same,MFI Sildenafil,"hPDE5 mutants [4]; GFP, 10 μM Sildenafil 48 h",13862
same,MFI Vardenafil,"hPDE5 mutants [4]; GFP, 10 μM Vardenafil 48 h",53848
same,AcGFP protein levels (western blot),hPDE5 mutants [5],Vardenafil dependent stabilization of AcGFP protein levels
